SMILES	melting point [°C]
CCc1cc(SCc2ccnc3sc(-c4ccc(C(F)(F)F)cc4)nc23)ccc1OCC(=O)O [Example 102, 2-Ethyl-4-[2-(4-trifluoromethylphenyl)thiazolo[5,4-b]pyridin-7-ylmethylsulfanyl]phenoxyacetic Acid]	176 to 178
Cc1cc(SCc2ccnc3[nH]c(-c4ccc(C(F)(F)F)cc4)nc23)ccc1OCC(=O)O [Example 103, 2-Methyl-4-[2-(4-trifluoromethylphenyl)-3H-imidazo[4,5-b]pyridin-7-ylmethylsulfanyl]phenoxyacetic Acid]	239 to 241
Cc1cc(SCc2ccnc3[nH]c(-c4ccc(C(F)(F)F)cc4)nc23)ccc1CCC(=O)O [Example 104, 3-{2-Methyl-4-[2-(4-trifluoromethylphenyl)-3H-imidazo[4,5-b]pyridin-7-ylmethylsulfanyl]phenyl}propionic Acid]	180 to 182
CCc1cc(SCc2ccnc3[nH]c(-c4ccc(C(F)(F)F)cc4)nc23)ccc1OCC(=O)O [Example 105, 2-Ethyl-4-[2-(4-trifluoromethylphenyl)-3H-imidazo[4,5-b]pyridin-7-ylmethylsulfanyl]phenoxyacetic Acid]	188 to 190
O=C(O)Cc1cccc(SCc2ccnc3[nH]c(-c4ccc(C(F)(F)F)cc4)nc23)c1 [Example 107]	213 to 215
Cc1cc(SCc2ccnc3c2nc(-c2ccc(C(F)(F)F)cc2)n3C)ccc1CCC(=O)O [Example 108, 3-{2-Methyl-4-[3-methyl-2-(4-trifluoromethylphenyl)-3H-imidazo[4,5-b]pyridin-7-ylmethylsulfanyl]phenyl}propionic Acid]	89 to 91
CCc1cc(SCc2ccnc3c2nc(-c2ccc(C(F)(F)F)cc2)n3C)ccc1OCC(=O)O [Example 109, 2-Ethyl-4-[3-methyl-2-(4-trifluoromethylphenyl)-3H-imidazo[4,5-b]pyridin-7-ylmethylsulfanyl]phenoxyacetic Acid]	118 to 120
